By Km is commonly meant the substrate concentration at which the rate is half of its maximum. In general, kcat refers to the number of substrate molecules converted per active site and unit of time at saturation.

Residue numbers refer to the chain shown, from its start. Where two headings read alike, the source gives them in different places.

Data on nine molecules can be found in paper PMC5589937 (Scientific Reports, 2017).

For one data set, the target named is T1, hGIIE (Homo sapiens, UniProt Q9NZK7).
T1 construct: The gene encoding for hGIIE protein without signal peptide was amplified by PCR; made in house; host or cells: Pichia pastoris X33 (vector pGAPZαA)
T1 sequence (Q9NZK7 20-142): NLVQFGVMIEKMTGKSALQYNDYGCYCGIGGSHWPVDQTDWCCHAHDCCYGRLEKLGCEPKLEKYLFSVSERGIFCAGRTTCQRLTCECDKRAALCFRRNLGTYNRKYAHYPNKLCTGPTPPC
The following applies: cited from earlier work.

Another data set deals with T2, hGIIE G6H (Homo sapiens, UniProt Q9NZK7, G25H).
T2 construct: The gene encoding for hGIIE protein without signal peptide was amplified by PCR; made in house; host or cells: Pichia pastoris X33 (vector pGAPZαA)
T2 sequence (Q9NZK7 20-142 G25H): T1 sequence (Q9NZK7 20-142) with G6H
Kind of data set: Inhibition of hGIIE mutant G6H, sPLA2 assay kit. As to conditions: G6H enzyme 10.91 µM; mean ± s.d., n=2; read-out: IC50 against hGIIE G6H. Format: biochemical. The protocol: (§1) Enzymatic Kinetics of hGIIE assay was carried out using sPLA2 Assay kit (Cayman, Ann Arbor, MI, USA). Substrate of this assay is 1, 2-Diheptanoyl Thio-phosphatidylcholine (DTPC). After hydrolysis of the thio ester bond in the sn-2 position by phospholipase A2, free thiols are detected using 5, 5-dithio-bis-nitrobenzoic acid (DTNB). Activity assay was carried out on a 96-well plate at 25 °C. 10 µL DTNB, 10 µL protein sample and 5 µL buffer (25 mM Tris-HCl, pH 7.5, 10 mM CaCl2, 100 mM KCl, 0.3 mM Triton X-100) were pooled in the well, then the reaction was initiated by adding 200 µL substrate solution to the well simultaneously. Absorbance at 414 nm was measured every 1 min for 15 min. […] Protein concentration was adjusted to ensure the absorbance increase of 0.01 to 0.1 per minute. Curve was fitted to Michaelis-Menten equation and Lineweaver-Burk plot for the estimation of Km and Vmax using GraphPad Prism 5, Kcat was calculated by Vmax/enzyme concentration.
(§2) Inhibition of wild type (WT) and mutated hGIIE was analyzed using sPLA2 assay kit as mentioned above. In the assay system, 5 µL assay buffer was replaced by 5 µL of the inhibitor. Different concentrations of compound 8, 14, 24, Me-Indoxam, and LY311727 were prepared. The final concentration of enzyme used per well are as following: WT: 6.42 µM; F5L: 6.4 µM; F97L: 10.48 µM; F5L_F97L: 6.73 µM; G6H: 10.91 µM; G6N: 7.56 µM; N21G: 32.86 µM; N21M: 22.14 µM; N21W: 30 µM. Control reactions without enzyme or inhibitor were carried out. Percent inhibition of every well were calculated. Curve was fitted to the log (inhibitor)-response variable slope and IC50 was calculated using GraphPad Prism 5 (GraphPad).

The target in a further data set is T3, hGIIE G6N (Homo sapiens, UniProt Q9NZK7, G25N).
T3 construct: The gene encoding for hGIIE protein without signal peptide was amplified by PCR; made in house; host or cells: Pichia pastoris X33 (vector pGAPZαA)
T3 sequence (Q9NZK7 20-142 G25N): T1 sequence (Q9NZK7 20-142) with G6N
Kind of data set: Inhibition of hGIIE mutant G6N, sPLA2 assay kit. The format is biochemical. As to conditions: G6N enzyme 7.56 µM; mean ± s.d., n=2; read-out: IC50 against hGIIE G6N. The procedure:
as §1, §2

The test system of a further data set is hGV. As to conditions: cited from earlier work.
A further data set has as its target T4, hGIIE N21W (Homo sapiens, UniProt Q9NZK7, N40W).
T4 construct: The gene encoding for hGIIE protein without signal peptide was amplified by PCR; made in house; host or cells: Pichia pastoris X33 (vector pGAPZαA)
T4 sequence (Q9NZK7 20-142 N40W): T1 sequence (Q9NZK7 20-142) with N21W
Kind of data set: Inhibition of hGIIE mutant N21W, sPLA2 assay kit. The format is biochemical. As to conditions: N21W enzyme 30 µM; mean ± s.d., n=2; read-out: IC50 against hGIIE N21W. The procedure:
as §1, §2

For the next data set, the target named is T5, hGIIE N21G (Homo sapiens, UniProt Q9NZK7, N40G).
T5 construct: The gene encoding for hGIIE protein without signal peptide was amplified by PCR; made in house; host or cells: Pichia pastoris X33 (vector pGAPZαA)
T5 sequence (Q9NZK7 20-142 N40G): T1 sequence (Q9NZK7 20-142) with N21G
Description: Inhibition of hGIIE mutant N21G, sPLA2 assay kit. The format is biochemical. The following applies: N21G enzyme 32.86 µM; mean ± s.d., n=2; read-out: IC50 against hGIIE N21G. The protocol:
as §1, §2

A further data set addresses T6, hGIIE F97L (Homo sapiens, UniProt Q9NZK7, F116L).
T6 construct: The gene encoding for hGIIE protein without signal peptide was amplified by PCR; made in house; host or cells: Pichia pastoris X33 (vector pGAPZαA)
T6 sequence (Q9NZK7 20-142 F116L): T1 sequence (Q9NZK7 20-142) with F97L
Kind of data set: Inhibition of hGIIE mutant F97L, sPLA2 assay kit. Format: biochemical. The following applies: F97L enzyme 10.48 µM; mean ± s.d., n=2; read-out: IC50 against hGIIE F97L. The procedure: as §1, §2

For a further data set, the target named is T7, WT hGIIE (Homo sapiens, UniProt Q9NZK7).
T7 construct: The gene encoding for hGIIE protein without signal peptide was amplified by PCR; made in house; host or cells: Pichia pastoris X33 (vector pGAPZαA)
T7 sequence (Q9NZK7 20-142): T1 sequence (Q9NZK7 20-142)
Kind of data set: Inhibition of wild type hGIIE, sPLA2 assay kit (DTPC substrate, DTNB detection). Format: biochemical. As to conditions: WT enzyme 6.42 µM per well; mean ± s.d., n=2; read-out: IC50 against WT hGIIE. The protocol: as §1, §2

A further data set has as its target T8, hGIIE F5L_F97L (Homo sapiens, UniProt Q9NZK7, F116L/F24L).
T8 construct: The gene encoding for hGIIE protein without signal peptide was amplified by PCR; made in house; host or cells: Pichia pastoris X33 (vector pGAPZαA)
T8 sequence (Q9NZK7 20-142 F24L/F116L): T1 sequence (Q9NZK7 20-142) with F5L, F97L
Kind of data set: Inhibition of hGIIE double mutant F5L_F97L, sPLA2 assay kit. Format: biochemical. The following applies: F5L_F97L enzyme 6.73 µM; mean ± s.d., n=2; read-out: IC50 against hGIIE F5L_F97L. The procedure:
as §1, §2

The target of a further data set is T9, hGIIE F5L (Homo sapiens, UniProt Q9NZK7, F24L).
T9 construct: The gene encoding for hGIIE protein without signal peptide was amplified by PCR; made in house; host or cells: Pichia pastoris X33 (vector pGAPZαA)
T9 sequence (Q9NZK7 20-142 F24L): T1 sequence (Q9NZK7 20-142) with F5L
Kind of data set: Inhibition of hGIIE mutant F5L, sPLA2 assay kit. Format: biochemical. The following applies: F5L enzyme 6.4 µM; mean ± s.d., n=2; read-out: IC50 against hGIIE F5L. The protocol: as §1, §2

A further data set addresses T10, hGIIE N21M (Homo sapiens, UniProt Q9NZK7, N40M).
T10 construct: The gene encoding for hGIIE protein without signal peptide was amplified by PCR; made in house; host or cells: Pichia pastoris X33 (vector pGAPZαA)
T10 sequence (Q9NZK7 20-142 N40M): T1 sequence (Q9NZK7 20-142) with N21M
Description: Inhibition of hGIIE mutant N21M, sPLA2 assay kit. Format: biochemical. As to conditions: N21M enzyme 22.14 µM; mean ± s.d., n=2; read-out: IC50 against hGIIE N21M. The procedure: as §1, §2

Another data set relates to hGX. As to conditions: cited from earlier work.
A further data set deals with hGIID. The arrangement: method as in PMID 15028265. As to conditions: cited from earlier work.
The subject of a further data set is hGIB. Further details: method as in PMID 16686528. The following applies: cited from earlier work.
For another data set, the system named is severe sepsis. Further details: method as in PMID 16096451. The following applies: trials terminated; experiment group; cited from earlier work.
The test system of a further data set is hGIIA. As to conditions: measure not given; read-out: potency to hGIIA; cited from earlier work.
In a further data set the test system is rheumatoid arthritis. The arrangement: method as in PMID 15742431. As to conditions: clinically tested; cited from earlier work.
Another data set deals with cardiovascular diseases. As to conditions: treatment of cardiovascular diseases; cited from earlier work.
Substrate in data set [1]: CCCCCC(=O)OC[C@H](COP(=O)([O-])OCC[N+](C)(C)C)OC(=O)CCCCC
Description: purified protein, by the assay type. As to conditions: other: ITC, 25 °C, 2 µM hGIIE, pH 7.5, 10 mM CaCl2.
Description: Reactions were performed with Microcal ITC200 (GE Healthcare) at 25 °C, and data were collected and analyzed by ORIGIN. A multiple injection kinetic assay was conducted using a stirring speed of 750 rpm. 2 µM protein hGIIE (200 µL) in the reaction cell was titrated with 13 × 3 µL injection of phospholipid (10–50 mM) using a 120 s delay between successive injections. The apparent enthalpy (ΔH) for the hydrolysis of phospholipid by hGIIE was determined in a separate experiment in which 1 × 6 µL injections of phospholipid into 2 µM protein hGIIE (200 µL) was made using spacing 1800 s. Buffer solution was carefully matched in both the ligand and enzyme solutions. Mother liquor of phospholipids including DHPG (in water), DHPC (in DMSO), DHPE (in DMSO) (Avanti) with 200 mM concentration were prepared. Working buffer (20 mM DHPG, 50 mM DHPC, 10 mM DHPE) is prepared by diluting the mother liquor with buffer 100 mM Tris, 150 mM KCl, 10 mM CaCl2, pH 7.5.

On to `Cc1c(C(=O)C(N)=O)c2c(OCC(=O)O)cccc2n1Cc1cccc2ccccc12` [Compound 8], for which the IC50 at hGIIE (read-out: IC50 hGIIE) was below 25 nM; at hGIIE G6H, 3760 ± 860 nM; on hGIIE G6N, 630 ± 50 nM; in the data set with hGV it was below 330 nM; at hGIIE N21W it was 1270 ± 220 nM; at hGIIE N21G, 630 ± 20 nM. Also, the IC50 is 480 ± 30 nM on hGIIE F97L; 280 ± 30 nM on WT hGIIE; 250 ± 40 nM at hGIIE F5L_F97L; 250 ± 60 nM on hGIIE F5L; 1050 ± 20 nM on hGIIE N21M.
Consider `Cc1c(C(=O)C(N)=O)c2c(OCC(=O)O)cccc2n1Cc1cccc(Br)c1` [Compound 14], for which the IC50 is below 25 nM at hGIIE (read-out: IC50 hGIIE); 880 ± 310 nM on hGIIE G6H; 230 ± 30 nM at hGIIE G6N; below 330 nM in the data set with hGV; 1940 ± 220 nM at hGIIE N21W; 1730 ± 50 nM at hGIIE N21G. The IC50 on hGIIE F97L came out at 280 ± 70 nM; on WT hGIIE, 220 ± 20 nM; on hGIIE F5L_F97L it was 300 ± 20 nM; at hGIIE F5L, 130 ± 40 nM; on hGIIE N21M, 840 ± 30 nM.
Turning to `Cc1c(C(=O)C(N)=O)c2c(OCC(=O)O)cccc2n1Cc1ccccc1C(F)(F)F` [Compound 24], the IC50 was below 25 nM on hGIIE (read-out: IC50 hGIIE); 540 ± 30 nM on hGIIE G6H; 270 ± 30 nM on hGIIE G6N; below 330 nM with hGV; 1870 ± 180 nM on hGIIE N21W; 2390 ± 400 nM at hGIIE N21G. Also, the IC50 came out at 250 ± 20 nM at hGIIE F97L, 140 ± 10 nM at hGIIE F5L_F97L, 110 ± 10 nM on hGIIE F5L and 830 ± 220 nM on hGIIE N21M. The “decreased effect against hGX than hGIIE” value in the data set on hGX is “about 50 fold”. For the same molecule, in the data set on hGIID, the “decreased effect against hGIID in comparison to hGIIE” value is recorded as “over 100 fold”.
Turning to `CCc1c(CC(N)=O)c2cc(OCCCP(=O)(O)O)ccc2n1Cc1ccccc1` [LY311727], the IC50 on hGIIE G6H came to 14300 ± 390 nM; on hGIIE G6N, 3070 ± 420 nM; at hGIIE N21W, 18000 ± 1370 nM; at hGIIE N21G, 5130 ± 1070 nM; on hGIIE F97L, 1120 ± 20 nM; on hGIIE F5L_F97L it was 1000 ± 220 nM. For the same molecule, the IC50 is 1790 ± 140 nM on hGIIE F5L and 5980 ± 400 nM on hGIIE N21M.
Turning to `CCc1c(C(=O)C(N)=O)c2c(OCC(=O)O)cccc2n1Cc1ccccc1` [LY315920, Varespladib], the IC50 with hGX was 75 nM; in the data set on hGV, 500 nM; with hGIB, 750 nM.
Consider `CCc1c(C(=O)C(N)=O)c2c(OCC(=O)[O-])cccc2n1Cc1ccccc1.[Na+]` [LY315920: Na], for which the “outcome of clinical trials in severe sepsis” value in the data set on severe sepsis is given as “higher mortality rate”.
`Cc1c(C(=O)C(N)=O)c2c(OCC(=O)O)cccc2n1Cc1ccccc1-c1ccccc1` [Me-Indoxam]: the IC50 at hGIIE (measure not given, read-out: potency to hGIIE) is 8 nM; at hGIIE G6H, 300 ± 20 nM; in the data set with hGIIA, 30 nM; on hGIIE G6N, 140 ± 20 nM; on hGIIE N21W it was 1440 ± 130 nM; on hGIIE N21G, 1840 ± 30 nM. Also, the IC50 at hGIIE F97L worked out at 260 ± 20 nM; on WT hGIIE it was 210 ± 10 nM; at hGIIE F5L_F97L it was 240 ± 30 nM; at hGIIE F5L it was 160 ± 10 nM; on hGIIE N21M, 880 ± 10 nM.
Regarding `CCc1c(C(=O)C(N)=O)c2c(OCC(=O)OC)cccc2n1Cc1ccccc1` [Varespladib methyl], the “efficacy in treatment of rheumatoid arthritis” value in the data set with rheumatoid arthritis is “ineffective”. In addition, the “adverse effects in phase three trials” value in the data set on cardiovascular diseases is “increased events of cardiovascular mortality, heart attack, and stroke”.

B1: hGIIE (Homo sapiens) (protein)
chain: T1 sequence (Q9NZK7 20-142)
As for B1, in data set [1], the Km is 5.52 ± 1.00 mM and the kcat was 3.22 ± 0.30 s⁻¹.
